The results in this text go back to patent US20230084927A1, “GLUCOSE UPTAKE INHIBITORS AND USES THEREOF” (METABOMED LTD., priority 2019, published 2023).

The test system of experiment [1] is SDH-KO-HRAS cells (SDHB-deficient). The experiment is described as follows: Cellular / differential toxicity assay (CellTiter-Glo, 3 days). The format is cell-based, murine. As to conditions: Mus musculus, 72 h, toxicity, SDH-KO cells, 3 days, CellTiter-Glo; read-out: EC50 (uM) SDH-KO-HTAS-C17. On the procedure: (§1) Identification of compounds that target specifically SDH-deficient cells was done by screening a library of small-molecule by using a differential toxicity screen with SDHB-proficient vs. SDHB-deficient cells (the […] cells were described in Cardaci 2015).
(§2) Cells Used for the Differential Assays: SDH-WT; SDH-KO-HRAS
(§3) Cell Culture Conditions: • Medium: DMEM-F12 medium+1 mM Glutamine+3% FBS • Plates: 96 well plate—Black, clear flat bottom • Incubation time: 3 days • Compound concentration: 10 point dilution starting from 10 uM to 0.0065 uM or a lower range when needed. • Viability assay at the end of incubation: Celltiter-Glo (CTG) from Promega.
(§4) Protocol: • Day 1: Plate cells in 96 well plate together with the appropriate concentration of compound.
(§5) Incubate for 3 days at 37° C. in 5% CO2 tissue culture incubator. • Day 4: Check viability of cells by adding CTG reagent and read luminescence in plate reader
(§6) SDH-WT and SDH-KO cells were grown in DMEM F12 supplemented with 1 mM Glutamine+3% FBS were treated with different concentrations of the indicated compounds in FIG. 11. Cell viability was determined 72 hours later by CellTiter Glue reagent (Promega), the luminescence was measured with ClarioStar reader (BMG) and the EC50s were calculated by Prism.
(§7) SDH-WT and SDH-KO cells were grown in DMEM F12 supplemented with 1 mM Glutamine+3% FBS were treated with different concentrations of the indicated compounds. Cell viability was determined 72 hours later by CellTiter Glue reagent (Promega), the luminescence was measured with ClarioStar reader (BMG) and the EC50s were calculated by Prism.
(§8) The cells were grown in DMEM F12 supplemented with 1 mM Glutamine+3% FBS were treated with different concentrations of the indicated compounds. Cell viability was determined 72 hours later by CellTiter Glue reagent (Promega), the luminescence was measured with ClarioStar reader (BMG) and the EC50s were calculated by Prism. Murine SDHB-WT/KO, HRAS transformed isogenic pair (FIG. 12A); UOK269, Human Tumor-derived SDHB-deficient RCC in their WT counterpart with re-expression of SDHB (FIG. 12B); and ACHN, RCC cells, and their SDHB-KO (SDHB CRISPRed out) isogenic cells (FIG. 12C).
A general note: ATP-based viability assays read luminescence as a measure of living cells.

Experiment [2] has as its system SDH-WT cells. The experiment is described as above. The settings on record: Mus musculus, 72 h, toxicity, SDH-WT cells, 3 days, CellTiter-Glo; read-out: EC50 (uM) SDH-WT. The format is cell-based, murine. On the procedure: as §1, §2, §3, §4, §5, §6, §7, §8

Broadly, the EC50 is the concentration at which the effect is half-maximal. Regarding `CC1(C)Cc2nc3sc4c(NCCc5ccc6[nH]c(N)nc6c5)ncnc4c3cc2CO1` [Compound 189], the results for the EC50 in experiment [1] and in experiment [2] were under 1 µM and 1 to 3 µM, respectively.
For the molecule `CC1(C)Cc2nc3sc4c(NCCc5ccc6[nH]c(-c7ccccc7)nc6c5)ncnc4c3cc2CO1` [Compound 190], the values for the EC50 in experiment [1] and in experiment [2] were 1 to 3 µM and under 1 µM, respectively.
Take `CC(=O)CNc1ccc(CCNc2ncnc3c2sc2nc4c(cc23)COC(C)(C)C4)cc1F` [Compound 191]: the EC50 in experiment [1] was 1 to 3 µM; in experiment [2], 3 to 10 µM.
With `CC1(C)Cc2nc3sc4c(NCCc5ccc(NCc6ccccc6)c(N)c5)ncnc4c3cc2CO1` [Compound 192], the EC50 in experiment [1] and in experiment [2] was under 1 µM in each case.
As for `CC1(C)Cc2nc3sc4c(NCCc5ccc(N)c(N)c5)ncnc4c3cc2CO1` [Compound 193], the EC50 in experiment [1] is under 1 µM; in experiment [2], 1 to 3 µM.
As for `Cc1nc2cc(CCNc3ncnc4c3sc3nc5c(cc34)COC(C)(C)C5)ccc2[nH]1` [Compound 194], the EC50 in experiment [1] and in experiment [2] was under 1 µM each time.
As to `COc1nc2cc(CCNc3ncnc4c3sc3nc5c(cc34)COC(C)(C)C5)ccc2[nH]1` [Compound 195], the EC50 in experiment [1] and in experiment [2] was under 1 µM each time.
With `CC1(C)Cc2nc3sc4c(NCCc5ccc6[nH]c(=O)[nH]c6c5)ncnc4c3cc2CO1` [Compound 196], the EC50 in experiment [1] is under 1 µM; in experiment [2] it was 3 to 10 µM.
Regarding `CC1(C)Cc2nc3sc4c(NCCc5ccc(NC(=O)c6ccccc6)c([N+](=O)[O-])c5)ncnc4c3cc2CO1` [Compound 197], the values for the EC50 in experiment [1] and in experiment [2] were 1 to 3 µM and 3 to 10 µM, respectively.
For the molecule `CC(=O)CN(C(=O)C(F)(F)F)c1ccc(CCNc2ncnc3c2sc2nc4c(cc23)COC(C)(C)C4)cc1F` [Compound 198], the EC50 was under 1 µM in experiment [1] and 3 to 10 µM in experiment [2].
`CC(C)C(=O)Nc1ccc(CCNc2ncnc3c2sc2nc4c(cc23)COC(C)(C)C4)cc1[N+](=O)[O-]` [Compound 199]: the EC50 in experiment [1] and in experiment [2] was 1 to 3 µM in each case.
With `CC1(C)Cc2nc3sc4c(NCCc5ccc(NC(=O)C(F)(F)F)c(F)c5)ncnc4c3cc2CO1` [Compound 200], the results for the EC50 in experiment [1] and in experiment [2] were 1 to 3 µM and 3 to 10 µM, respectively.
With `CC1(C)Cc2nc3sc4c(NCCc5ccc6[nH]nnc6c5)ncnc4c3cc2CO1` [Compound 201], the EC50 was under 1 µM in experiment [1] and 1 to 3 µM in experiment [2].
With `CC1(C)Cc2nc3sc4c(NCCc5ccc6occc6c5)ncnc4c3cc2CO1` [Compound 202], the EC50 in experiment [1] was under 1 µM; in experiment [2], 3 to 10 µM.
On to `CC1(C)Cc2nc3sc4c(NCCc5ccc(N)c(F)c5)ncnc4c3cc2CO1` [Compound 203], for which the EC50 in experiment [1] was under 1 µM; in experiment [2], over 10 µM.
Turning to `CC(=O)Nc1ccc(CCNc2ncnc3c2sc2nc4c(cc23)COC(C)(C)C4)cc1F` [Compound 204], the EC50 in experiment [1] was 1 to 3 µM; in experiment [2] it was over 10 µM.
In the case of `CC1(C)Cc2nc3sc4c(NCCc5ccc(N)c([N+](=O)[O-])c5)ncnc4c3cc2CO1` [Compound 205], the EC50 in experiment [1] is under 1 µM; in experiment [2], 3 to 10 µM.
As to `CC1(C)Cc2nc3sc4c(NCCc5ccc6[nH]cnc6c5)ncnc4c3c(-c3ccccc3)c2CO1` [Compound 206], the EC50 in experiment [1] and in experiment [2] was under 1 µM each time.
With `COc1ccc(CCNC(=O)c2sc3nc4c(cc3c2NC(=O)C(F)(F)F)COC(C)(C)C4)cc1F` [Compound 207], the EC50 in experiment [1] was 3 to 10 µM; in experiment [2] it was 1 to 3 µM.
For `COc1ccc(CCNC(=O)c2sc3nc4c(cc3c2N)COC(C)(C)C4)cc1F` [Compound 208], the EC50 in experiment [1] and in experiment [2] was over 10 µM throughout.
With `COc1ccc(CCNc2ncnc3c2sc2nc4c(cc23)CC(C(=O)O)CC4)cc1F` (centres unmarked) [Compound 209], the EC50 in experiment [1] and in experiment [2] was over 10 µM each time.
As for `CC1(C)Cc2nc3sc4c(NCCc5ccc6[nH]cnc6c5)ncnc4c3c(C(=O)OCCCCCCCC(=O)O)c2CO1` [Compound 210], the figures for the EC50 in experiment [1] and in experiment [2] were 3 to 10 µM and under 1 µM, respectively.
